Data: publication PMC8879444, “Neofunctionalization of Glycolytic Enzymes: An Evolutionary Route to Plant Parasitism in the Oomycete Phytophthora nicotianae” (Microorganisms, 2022)
Like-named read-outs stand apart in the source and are kept apart here.

Tested on: GKI (PPTG_18934)
Details: pH 8.0, phosphate buffer

Compound	Km (read-out: Km / ATP, co-substrate glucose)	Km (read-out: Km / Glucose, substrate inhibition at glucose >= 1 mM)
Nc1ncnc2c1ncn2[C@@H]1O[C@H](COP(=O)(O)OP(=O)(O)OP(=O)(O)O)[C@@H](O)[C@H]1O [ATP]	700 ± 50 µM	–
OC[C@H]1OC(O)[C@H](O)[C@@H](O)[C@@H]1O (some centres unmarked) [Glucose]	–	40.5 ± 5 µM
